Holding throughout (assay type): cell-based
For experiment [1], the target named is T1, IKAROS (Homo sapiens, UniProt Q13422+Q96SW2).
T1 construct: endogenous in cells; host or cells: MV-4-11
Description: IKAROS degradation assay (Western blot, MV-4-11 cells). The note with it: MV4-11, 6-8 h. On the procedure:
(§1) MV-4-11 cells were grown in RPMI 1640 media supplemented with 10% fetal bovine serum, streptomycin and penicillin.
(§2) Cells were cultured at approximately 10^6 cells per mL and incubated in DMSO or the indicated compound for 6-8 h. Whole cell extracts were prepared using RIPA buffer according to manufacturer's protocol (Pierce). Briefly, 3×10^6 cells were washed once in PBS, the cell pellets were resuspended in RIPA buffer and allowed to incubate for 15 minutes on ice. Cells debris was removed by centrifugation and the cleared whole cell lysates were transferred to new tubes for further analysis.
(§3) For Western blot analysis, whole cell protein extracts were separated on 4-12% SDS-polyacrylamide gels, transferred to nitrocellulose and probed with the indicated primary antibodies. Membranes were subsequently washed and probed with the appropriate IRDye secondary antibodies (LI-COR). The signal was detected using the Odyssey Imaging System (LI-COR).
(§4) The following antibodies were used in these studies: Anti-eRF3/GSPT1: Abcam, ab126090 (Cambridge, Mass.); Anti-Ikaros: Abcam, ab191394 (Cambridge, Mass.); Anti-CK1α: Abcam, ab108296 (Cambridge, Mass.); Anti-CDK9: Santa Cruz Biotechnology, sc13130 (Dallas, Tex.); Anti-CDK16: Millipore Sigma, HPA001366 (St. Louis, Mo.); 3-actin (8H10comD10) mouse monoclonal antibody: Cell Signaling Technology, #3700 (Danvers, Mass.); IRDye 680RD Goat anti-rabbit antibody: LI-COR, 926-68071 (Lincoln, Nebr.); IRDye 800CW Goat anti-mouse antibody: LI-COR, 926-32210 (Lincoln, Nebr.).
(§5) CDK9 activities are shown in Table 4 at two different concentrations. CDK16 activities are shown in Table 5 at two different concentrations. In each of Tables 1-5, the % degradation values are reported as “A”, “B”, “C”, or “D”. “A” represents a % degradation value of less than 25% (value <25%). “B” represents a % degradation value of equal to or more than 25% and less than 50% (25%≤value<50%). “C” represents a % degradation value of equal to or more than 50% and less than 75% (50%≤value<75%). “D” represents a % degradation value of equal to or more than 75% (value ≥75%).

Experiment [2] deals with MOLM-13 cells. In words: MOLM-13 cell viability assay (CellTiter-Glo). The note with it: Homo sapiens, MOLM-13, 72 h, 3 days, read-out: MOLM-13 Cell Viability % DMSO at 1 μM. On the procedure:
MOLM-13 cells were cultured in RPMI 1640 media supplemented with 10% fetal bovine serum, streptomycin and penicillin, and were plated in walled 96-well plates at 2500 cells/well. Cells were incubated in DMSO (control) or the indicated compound for 3 days at 37° C. and 5% CO2. Following the incubation period, 100 μL of CellTiterGlow (CTG) reagent (CellTiter-Glo® Luminescent Cell Viability Assay, Promega (Madison, Wis.)) was added to each well. Following a 10 minutes incubation with shaking, luminescence was measured using the EnVision Multimode plate reader.
The MOLM-13 cell viability values as % DMSO are reported as “A”, “B”, “C”, or “D”. “A” represents a % viability value of less than 50% (value <50%). “B” represents a % viability value of equal to or more than 50% and less than 70% (50%≤value<70%). “C” represents a % viability value of equal to or more than 70% and less than 90% (70%≤value<90%). “D” represents a % viability value of equal or more than 90% (value ≥90%).

Experiment [3] deals with T2, CDK9 (Homo sapiens, UniProt P50750).
T2 construct: Whole cell extracts were prepared using RIPA buffer; endogenous in cells; host or cells: MV-4-11
In words: CDK9 degradation assay (Western blot, MV-4-11 cells). As to conditions: 6-8 h; for Dmax at 0.1 µM: MV4-11, 0.1 μM; for Dmax at 1 µM: MV4-11, 1 μM. Here is the method:
as §1, §2, §3, §4, §5

Experiment [4] addresses T3, CDK16 (Homo sapiens, UniProt Q00536).
T3 construct: Whole cell extracts were prepared using RIPA buffer; endogenous in cells; host or cells: MV-4-11
Description: CDK16 degradation assay (Western blot, MV-4-11 cells). As to conditions: 6-8 h; for Dmax at 0.1 µM: MV4-11, 0.1 μM; for Dmax at 1 µM: MV4-11, 1 μM. Here is the method: as §1, §2, §3, §4, §5

T3 sequence (Q00536 whole entry): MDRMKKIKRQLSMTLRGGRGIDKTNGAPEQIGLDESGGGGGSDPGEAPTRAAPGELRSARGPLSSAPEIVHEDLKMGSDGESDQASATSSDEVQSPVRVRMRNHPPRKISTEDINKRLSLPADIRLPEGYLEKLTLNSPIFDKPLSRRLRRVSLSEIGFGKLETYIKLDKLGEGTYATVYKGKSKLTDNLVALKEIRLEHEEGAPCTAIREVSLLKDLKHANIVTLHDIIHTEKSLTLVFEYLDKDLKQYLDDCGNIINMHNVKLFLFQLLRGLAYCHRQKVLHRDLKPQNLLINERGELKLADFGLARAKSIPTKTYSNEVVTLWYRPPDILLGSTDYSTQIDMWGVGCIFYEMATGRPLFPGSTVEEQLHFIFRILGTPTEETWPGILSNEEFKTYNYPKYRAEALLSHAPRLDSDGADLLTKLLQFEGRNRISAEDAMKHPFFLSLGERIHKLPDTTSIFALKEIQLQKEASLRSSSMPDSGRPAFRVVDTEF
T2 sequence (P50750 whole entry): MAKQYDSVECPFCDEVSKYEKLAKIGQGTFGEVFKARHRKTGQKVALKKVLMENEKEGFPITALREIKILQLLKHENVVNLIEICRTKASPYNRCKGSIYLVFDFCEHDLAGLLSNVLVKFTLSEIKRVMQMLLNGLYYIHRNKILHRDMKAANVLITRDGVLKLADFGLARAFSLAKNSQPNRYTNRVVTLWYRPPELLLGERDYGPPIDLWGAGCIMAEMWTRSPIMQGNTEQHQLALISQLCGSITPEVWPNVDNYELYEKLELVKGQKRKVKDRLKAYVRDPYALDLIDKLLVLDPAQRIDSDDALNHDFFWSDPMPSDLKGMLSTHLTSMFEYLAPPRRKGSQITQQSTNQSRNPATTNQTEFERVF
T1 sequence (Q13422 whole entry): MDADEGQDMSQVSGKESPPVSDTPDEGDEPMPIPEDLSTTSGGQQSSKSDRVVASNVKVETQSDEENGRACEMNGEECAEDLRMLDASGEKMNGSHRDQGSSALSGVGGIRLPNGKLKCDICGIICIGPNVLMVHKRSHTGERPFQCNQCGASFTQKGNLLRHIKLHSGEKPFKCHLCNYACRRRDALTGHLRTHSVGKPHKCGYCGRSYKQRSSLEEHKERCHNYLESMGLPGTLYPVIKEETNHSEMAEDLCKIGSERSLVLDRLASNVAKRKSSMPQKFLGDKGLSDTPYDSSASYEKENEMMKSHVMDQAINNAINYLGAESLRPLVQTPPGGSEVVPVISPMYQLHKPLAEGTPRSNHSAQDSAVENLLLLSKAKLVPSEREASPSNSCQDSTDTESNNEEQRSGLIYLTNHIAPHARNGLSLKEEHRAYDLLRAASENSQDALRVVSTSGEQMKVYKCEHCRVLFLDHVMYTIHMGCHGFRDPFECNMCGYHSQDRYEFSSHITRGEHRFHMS
T1 sequence (Q96SW2 whole entry): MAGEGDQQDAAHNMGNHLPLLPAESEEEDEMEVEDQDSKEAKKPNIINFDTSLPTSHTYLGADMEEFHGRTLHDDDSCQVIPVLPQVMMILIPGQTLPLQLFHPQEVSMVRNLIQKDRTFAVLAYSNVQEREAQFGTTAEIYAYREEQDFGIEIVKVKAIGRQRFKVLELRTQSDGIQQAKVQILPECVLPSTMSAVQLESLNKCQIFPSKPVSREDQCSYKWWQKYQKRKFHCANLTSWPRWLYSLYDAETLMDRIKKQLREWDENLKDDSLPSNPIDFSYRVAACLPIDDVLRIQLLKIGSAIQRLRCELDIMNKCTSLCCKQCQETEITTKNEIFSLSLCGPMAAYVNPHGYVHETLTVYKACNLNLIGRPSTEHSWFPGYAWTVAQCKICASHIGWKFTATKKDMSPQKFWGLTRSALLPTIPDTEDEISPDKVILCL
T1 sequence (Q16531 whole entry partner): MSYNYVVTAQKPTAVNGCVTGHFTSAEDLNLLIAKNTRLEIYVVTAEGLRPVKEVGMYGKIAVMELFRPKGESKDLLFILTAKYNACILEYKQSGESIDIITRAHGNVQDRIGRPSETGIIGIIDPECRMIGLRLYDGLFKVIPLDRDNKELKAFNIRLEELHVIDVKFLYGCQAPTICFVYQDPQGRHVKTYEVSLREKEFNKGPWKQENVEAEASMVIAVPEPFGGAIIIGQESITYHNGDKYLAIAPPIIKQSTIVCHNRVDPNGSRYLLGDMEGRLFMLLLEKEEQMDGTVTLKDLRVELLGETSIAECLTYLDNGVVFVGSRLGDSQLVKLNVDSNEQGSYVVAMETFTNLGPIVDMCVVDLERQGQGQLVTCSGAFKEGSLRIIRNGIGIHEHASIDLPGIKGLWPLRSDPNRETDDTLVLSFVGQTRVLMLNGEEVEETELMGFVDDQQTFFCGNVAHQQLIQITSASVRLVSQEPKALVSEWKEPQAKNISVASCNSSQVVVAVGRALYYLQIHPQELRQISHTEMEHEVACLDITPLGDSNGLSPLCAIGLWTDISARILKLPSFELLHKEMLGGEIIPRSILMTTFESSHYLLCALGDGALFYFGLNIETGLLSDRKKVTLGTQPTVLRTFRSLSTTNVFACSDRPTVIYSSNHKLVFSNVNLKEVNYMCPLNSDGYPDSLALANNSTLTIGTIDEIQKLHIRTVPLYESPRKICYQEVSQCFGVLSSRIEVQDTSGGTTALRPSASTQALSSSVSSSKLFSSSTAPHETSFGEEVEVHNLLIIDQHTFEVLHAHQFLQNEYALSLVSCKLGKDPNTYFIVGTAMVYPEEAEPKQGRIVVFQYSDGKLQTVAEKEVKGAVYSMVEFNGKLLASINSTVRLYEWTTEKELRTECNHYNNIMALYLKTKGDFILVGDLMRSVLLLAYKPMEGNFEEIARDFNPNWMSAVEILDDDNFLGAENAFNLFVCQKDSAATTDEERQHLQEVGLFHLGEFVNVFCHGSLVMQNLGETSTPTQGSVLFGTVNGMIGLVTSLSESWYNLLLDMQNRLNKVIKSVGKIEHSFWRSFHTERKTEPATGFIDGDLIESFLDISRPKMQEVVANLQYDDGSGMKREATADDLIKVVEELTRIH

`CC(C)(C)c1cnc(CSc2cnc(NC(=O)C3CCN(CCCCCCCCNC(=O)NCc4cc5c(s4)C(=O)N(C4CCC(=O)NC4=O)C5)CC3)s2)o1` (stereo not drawn) [Compound 20, N-(5-(((5-(tert-butyl)oxazol-2-yl)methyl)thio)thiazol-2-yl)-1-(8-(3-((5-(2,6-dioxopiperidin-3-yl)-6-oxo-5,6-dihydro-4H-thieno[2,3-c]pyrrol-2-yl)methyl)ureido)octyl)piperidine-4-carboxamide] displayed a Dmax at 1 µM in experiment [1] of 50 to 75%. For the same molecule, the viability at 1 µM in experiment [2] was over 90%.

In experiment [3], `Cn1ncc(-c2nc(N[C@H]3CC[C@H](NCC(=O)NCCCCCNC(=O)NCc4cc5c(s4)C(=O)N(C4CCC(=O)NC4=O)C5)CC3)ncc2Cl)c1CC1CC1` (stereo partly drawn) [Compound 16, 2-(((1r,4r)-4-((5-chloro-4-(5-(cyclopropylmethyl)-1-methyl-1H-pyrazol-4-yl)pyrimidin-2-yl)amino)cyclohexyl)amino)-N-(5-(3-((5-(2,6-dioxopiperidin-3-yl)-6-oxo-5,6-dihydro-4H-thieno[2,3-c]pyrrol-2-yl)methyl)ureido)pentyl)acetamide] came in with a Dmax at 0.1 µM of 50 to 75% and a Dmax at 1 µM of at least 75%. In experiment [4], this molecule yielded a maximal degradation (Dmax) at 0.1 µM of at least 75% and a Dmax at 1 µM of at least 75%. The viability at 1 µM in experiment [2] was over 90%.

On to `Cn1ncc(-c2nc(N[C@H]3CC[C@H](NCCCCCCNC(=O)NCc4cc5c(s4)C(=O)N(C4CCC(=O)NC4=O)C5)CC3)ncc2Cl)c1CC1CC1` (stereo partly drawn) [Compound 24, 1-(6-(((1r,4r)-4-((5-chloro-4-(5-(cyclopropylmethyl)-1-methyl-1H-pyrazol-4-yl)pyrimidin-2-yl)amino)cyclohexyl)amino)hexyl)-3-((5-(2,6-dioxopiperidin-3-yl)-6-oxo-5,6-dihydro-4H-thieno[2,3-c]pyrrol-2-yl)methyl)urea], for which the Dmax at 1 µM was 25 to 50% in experiment [1], at least 75% in experiment [3] and at least 75% in experiment [4]. Moreover, the Dmax at 0.1 µM in experiment [3] and in experiment [4] was 50 to 75% throughout. Moreover, the viability at 1 µM in experiment [2] is over 90%.

As for `CN(CCNC(=O)CN1CCC(C(=O)Nc2ncc(SCc3ncc(C(C)(C)C)o3)s2)CC1)CCNC(=O)NCc1cc2c(s1)C(=O)N(C1CCC(=O)NC1=O)C2` (stereo not drawn) [Compound 15, N-(5-(((5-(tert-butyl)oxazol-2-yl)methyl)thio)thiazol-2-yl)-1-(1-(5-(2,6-dioxopiperidin-3-yl)-6-oxo-5,6-dihydro-4H-thieno[2,3-c]pyrrol-2-yl)-7-methyl-3,11-dioxo-2,4,7,10-tetraazadodecan-12-yl)piperidine-4-carboxamide], in experiment [3], the Dmax at 0.1 µM lay in the range of 50 to 75% and the Dmax at 1 µM is at least 75%. In experiment [4], this molecule showed a Dmax at 0.1 µM of under 25% and a Dmax at 1 µM of under 25%. Besides, the viability at 1 µM in experiment [2] lay within 70 to 90%.

In experiment [3], `Cn1ncc(-c2nc(N[C@H]3CC[C@H](NCC(=O)NCCCCCNC(=O)NCc4cc5c(s4)C(=O)N(C4CCC(=O)NC4=O)C5)CC3)ncc2F)c1CC1CC1` (stereo partly drawn) [Compound 17, 2-(((1r,4r)-4-((4-(5-(cyclopropylmethyl)-1-methyl-1H-pyrazol-4-yl)-5-fluoropyrimidin-2-yl)amino)cyclohexyl)amino)-N-(5-(3-((5-(2,6-dioxopiperidin-3-yl)-6-oxo-5,6-dihydro-4H-thieno[2,3-c]pyrrol-2-yl)methyl)ureido)pentyl)acetamide] returned a Dmax at 0.1 µM of 50 to 75% and a Dmax at 1 µM of at least 75%. In experiment [4], the Dmax at 0.1 µM lay in the range of 50 to 75% and the Dmax at 1 µM fell in the range of 50 to 75%.

In the case of `CC(C)(C)c1cnc(CSc2cnc(NC(=O)C3CCN(CC(=O)NCCOCCOCCOCCNc4cccc5c4C(=O)N(C4CCC(=O)NC4=O)C5=O)CC3)s2)o1` (stereo not drawn) [Compound 10, N-(5-(((5-(tert-butyl)oxazol-2-yl)methyl)thio)thiazol-2-yl)-1-(14-((2-(2,6-dioxopiperidin-3-yl)-1,3-dioxoisoindolin-4-yl)amino)-2-oxo-6,9,12-trioxa-3-azatetradecyl)piperidine-4-carboxamide], the Dmax at 1 µM in experiment [1] lay within 50 to 75%.

In experiment [3], `CC(C)(C)c1cnc(CSc2cnc(NC(=O)C3CCN(CC(=O)NCCCNC(=O)NCc4cc5c(s4)C(=O)N(C4CCC(=O)NC4=O)C5)CC3)s2)o1` (stereo not drawn) [Compound 12, N-(5-(((5-(tert-butyl)oxazol-2-yl)methyl)thio)thiazol-2-yl)-1-(2-((3-(3-((5-(2,6-dioxopiperidin-3-yl)-6-oxo-5,6-dihydro-4H-thieno[2,3-c]pyrrol-2-yl)methyl)ureido)propyl)amino)-2-oxoethyl)piperidine-4-carboxamide] displayed a Dmax at 0.1 µM of at least 75% and a Dmax at 1 µM of at least 75%. In experiment [4], this molecule showed a Dmax at 0.1 µM of 25 to 50% and a Dmax at 1 µM of 25 to 50%. Further, the viability at 1 µM in experiment [2] was over 90%.

Regarding `Cn1ncc(-c2nc(N[C@H]3CC[C@H](NCC(=O)NCCCCCNCC(=O)NCc4cc5c(s4)C(=O)N(C4CCC(=O)NC4=O)C5)CC3)ncc2F)c1CC1CC1` (stereo partly drawn) [Compound 25, 2-(((1r,4r)-4-((4-(5-(cyclopropylmethyl)-1-methyl-1H-pyrazol-4-yl)-5-fluoropyrimidin-2-yl)amino)cyclohexyl)amino)-N-(5-((2-(((5-(2,6-dioxopiperidin-3-yl)-6-oxo-5,6-dihydro-4H-thieno[2,3-c]pyrrol-2-yl)methyl)amino)-2-oxoethyl)amino)pentyl)acetamide], the Dmax at 1 µM fell in the range of 25 to 50% in experiment [1], 50 to 75% in experiment [3] and 50 to 75% in experiment [4]. In experiment [3], this molecule gave a Dmax at 0.1 µM of 50 to 75%. Further, the viability at 1 µM in experiment [2] is over 90%.

Take `Cn1ncc(-c2nc(N[C@H]3CC[C@H](NCC(=O)NCCCCCNCC(=O)NCc4scc5c4CN(C4CCC(=O)NC4=O)C5=O)CC3)ncc2Cl)c1CC1CC1` (stereo partly drawn) [Compound 31, 2-(((1r,4r)-4-((5-chloro-4-(5-(cyclopropylmethyl)-1-methyl-1H-pyrazol-4-yl)pyrimidin-2-yl)amino)cyclohexyl)amino)-N-(5-((2-(((5-(2,6-dioxopiperidin-3-yl)-4-oxo-5,6-dihydro-4H-thieno[3,4-c]pyrrol-1-yl)methyl)amino)-2-oxoethyl)amino)pentyl)acetamide]: the Dmax at 0.1 µM in experiment [3] and in experiment [4] was 25 to 50% each time. Besides, the Dmax at 1 µM in experiment [3] and in experiment [4] was at least 75% each time. In addition, in experiment [2], the viability at 1 µM was over 90%.

In experiment [1], `CC(C)(C)c1cnc(CSc2cnc(NC(=O)C3CCN(CC(=O)NCCCCCNC(=O)NCc4cc5c(s4)C(=O)N(C4CCC(=O)NC4=O)C5=O)CC3)s2)o1` (stereo not drawn) [Compound 27, N-(5-(((5-(tert-butyl)oxazol-2-yl)methyl)thio)thiazol-2-yl)-1-(2-((5-(3-((5-(2,6-dioxopiperidin-3-yl)-4,6-dioxo-5,6-dihydro-4H-thieno[2,3-c]pyrrol-2-yl)methyl)ureido)pentyl)amino)-2-oxoethyl)piperidine-4-carboxamide] returned a Dmax at 1 µM of 25 to 50%. Also, the viability at 1 µM in experiment [2] is over 90%.

Turning to `Cn1ncc(-c2nc(N[C@H]3CC[C@H](NCCCCCCCCNC(=O)NCc4cc5c(s4)C(=O)N(C4CCC(=O)NC4=O)C5)CC3)ncc2F)c1CC1CC1` (stereo partly drawn) [Compound 23, 1-(8-(((1r,4r)-4-((4-(5-(cyclopropylmethyl)-1-methyl-1H-pyrazol-4-yl)-5-fluoropyrimidin-2-yl)amino)cyclohexyl)amino)octyl)-3-((5-(2,6-dioxopiperidin-3-yl)-6-oxo-5,6-dihydro-4H-thieno[2,3-c]pyrrol-2-yl)methyl)urea], in experiment [3], the Dmax at 0.1 µM was at least 75% and the Dmax at 1 µM is at least 75%. In addition, in experiment [4], the greatest degradation seen (Dmax) at 0.1 µM fell in the range of 50 to 75% and the Dmax at 1 µM was at least 75%. Further, in experiment [2], the viability at 1 µM is over 90%.
